Test results reported in patent publication US20250066320A1, “Active Ingredients with Sialagogue and Tingling/Fizzy Effect, and Preparations Containing Same” (Symrise AG, priority 2021, published 2025).

Test: Sensory tasting of the active ingredients (mouth-watering and/or tingling effect) by a trained expert panel
Format: in vivo, human
Conditions: for Sensory Rating (profile in words): 3 to 7 tasters; for Sensory Rating: intensity of mouth-watering and/or tingling/fizzing effect (figure in brackets): 50 ppm, scale of 1 (very weak) to 10 (very strong)
Procedure: The sensory tasting of the active ingredients according to the invention was carried out as follows: • (1) The active ingredients were each prepared in a 5% sugar solution or in an unflavored standard fondant mass. Fondant is the name for a soft, pasty sugar mass that is used to make various confectionery products. Fondant is made from water and sucrose as well as glucose syrup, invert sugar cream and/or sugar alcohols (e.g., sorbitol or mannitol). The mixture is boiled and then processed into a soft paste by kneading it vigorously and cooling it quickly. • (2) The concentration of the active ingredients was 25 or 50 ppm. • (3) The test samples were tested under practical conditions by a panel of experts with sensory training. For tasting, 3 to 7 tasters each rinsed their mouths with approx. 5 ml of the sugar solution and spat the solution out again. The mouth-watering and/or tingling effect was assessed on a scale of 1 (very weak) to 10 (very strong) and the profile evaluated.

[1] = 50 ppm in 5% sugar solution or unflavored fondant mass
[2] = 25 ppm in 5% sugar solution or unflavored fondant mass

Structure (SMILES) | Sensory Rating (profile in words) [1] | Sensory Rating: intensity of mouth-watering and/or tingling/fizzing effect (figure in brackets) | Sensory Rating (profile in words) [2]
CCOc1ccc(C(=O)N2CCN(CCC3CCCCC3)CC2)cc1 [Compound 44, [4-(2-cyclo-hexylethyl)piperazin-1-yl]-(4-ethoxy-phenyl)methanone] | slightly tingling/fizzing (4), and mouth-watering | slightly tingling/fizzing (4), and mouth-watering | –
O=C(c1ccccc1)N1CCC(CCCc2ccccc2)CC1 [Compound 20, Phenyl-[4-(3-phenyl-propyl)-1-piperidyl]-methanone] | slightly tingling/ fizzing (2), mouth-watering, Anthranilate- like, fruity note | slightly tingling/ fizzing (2), mouth-watering, Anthranilate- like, fruity note | –
COc1ccc(C(=O)N2CCCN(CCc3ccccc3)CC2)cc1OC [Compound 32, (3,4-Dimethoxy-phenyl)-[4-(2-phenyl-ethyl)-1,4-diazepan-1-yl]methanone] | very slightly tingling/ fizzing (1), slightly metallic taste | very slightly tingling/ fizzing (1), slightly metallic taste | –
COc1ccc(C(=O)N2CCN(CCCc3ccccc3)CC2)cc1 [Compound 38, (4-Methoxy-phenyl)-[4-(3-phenylpropyl)piperazin-1-yl] methanone] | remarkably tingling/fizzing (6), numbing, Increasing effect over time | 6 | slightly mouth-watering, anesthetic
CCOc1ccc(C(=O)N2CCC(CCCc3ccccc3)CC2)cc1 [Compound 45, (4-ethoxyphenyl)-[4-(3-phenyl-propyl)-1-piperidyl]-methanone] | slightly tin- gling/ fizzing (2) | slightly tin- gling/ fizzing (2) | –
CCCOc1ccc(C(=O)N2CCN(C/C=C/c3ccccc3)CC2)cc1OCCC [Compound 6, [4-[(E)-cinnamyl]piperazin-1-yl]-(3,4-dipropoxy-phenyl)methanone] | – | – | bitter, light astringent
CCOc1ccc(C(=O)N2CCC(CCCc3ccccc3)CC2)cc1OCC [Compound 25, (3,4-Diethoxy-phenyl)-[4-(3-phenyl-propyl)-1-piperidyl]-methanone] | Very slightly tingling/fizzing (2-3), sharp, astringent | Very slightly tingling/fizzing (2-3), sharp, astringent | –
CCOc1ccc(C(=O)N2CCN(CCCc3ccccc3)CC2)cc1OCC [Compound 7, (3,4-Diethoxy-phenyl)-[4-(3-phenyl-propyl)piperazin-1-yl]methanone] | – | – | tingling/ fizzing, mouth-watering, slightly cooling
CCOc1ccc(C(=O)N2CCN(Cc3ccncc3)CC2)cc1OCC [Compound 14, (3,4-Diethoxy-phenyl)-[4-(4-pyridyl-methyl)piperazin-1-yl]methanone] | – | – | slightly tingling/ fizzing, mouth-watering, burning,
O=C(c1ccccc1)N1CCN(CCC2CCCCC2)CC1 [Compound 19, [4-(2-cyclo-hexylethyl)piperazin-1-yl]-phenyl-methanone] | of mushrooms, fruity, slightly metallic taste, slightly tingling/ fizzing | 1-2 | fruity, slightly mouth-watering
CCOc1ccc(C(=O)N2CCCN(CCc3ccccc3)CC2)cc1 [Compound 47, (4-ethoxyphenyl)-[4-(2-phenylethyl)-1,4-diazepan-1-yl]methanone] | Strong mouth-watering and tingling/fizzing effect (6), Pleasant taste | Strong mouth-watering and tingling/fizzing effect (6), Pleasant taste | –
COc1ccc(C(=O)N2CCN(CCc3ccccc3)CC2)cc1 [Compound 35, (4-Methoxy-phenyl)-[4-(2-phenyl-ethyl)piperazin-1-yl]methanone] | slightly tingling/ fizzing (3) and mouth-watering, Acid taste, Honey note | 3 | slightly mouth-watering
CCOc1ccc(C(=O)N2CCN(CCc3ccncc3)CC2)cc1OCC [Compound 12, (3,4-Diethoxy-phenyl)-[4-[2-(4-pyridyl)ethyl]piperazin-1-yl] methanone] | – | – | tingling/ fizzing, mouth-watering, ethanolic
COc1ccc(C(=O)N2CCN(CCCCc3ccccc3)CC2)cc1OC [Compound 27, (3,4-Dimethoxy-phenyl)-[4-(4-phenyl-butyl)piperazin-1-yl]methanone] | slightly tingling/ fizzing (4-5), and mouth-watering, metallic after- taste, weakly burning | slightly tingling/ fizzing (4-5), and mouth-watering, metallic after- taste, weakly burning | –
CCOc1ccc(C(=O)N2CCN(Cc3ccccc3)CC2)cc1 [Compound 48, (4-benzylpiperazin-1-yl)-(4-ethoxy-phenyl)methanone] | slightly tingling/ fizzing (1-2) | slightly tingling/ fizzing (1-2) | –
COc1ccc(C(=O)N2CCN(CCC3CCCCC3)CC2)cc1 [Compound 36, [4-(2-cyclo-hexylethyl)piperazin-1-yl]-(4-methoxy-phenyl) methanone] | slightly tingling/fizzing (3), metallic taste | slightly tingling/fizzing (3), metallic taste | –
CCOc1ccc(C(=O)N2CCN(CCCCc3ccccc3)CC2)cc1 [Compound 41, (4-ethoxyphenyl)-[4-(4-phenyl-butyl)piperazin-1-yl]methanone] | strong mouth- watering effect (8), long-lasting, Slightly hot | 8 | metallic, mouth- watering effect
COc1ccc(C(=O)N2CCN(CCCCc3ccccc3)CC2)cc1 [Compound 34, (4-Methoxy-phenyl)-[4-(4-phenyl-butyl)piperazin-1-yl]methanone] | strongly mouth-watering/ tingling/fizzing | 6 | tingling/ fizzing and mouth-watering effect, neutral taste
COc1ccc(C(=O)N2CCC(CCCc3ccccc3)CC2)cc1OC [Compound 30, (3,4-Dimethoxy-phenyl)-[4-(3-phenyl-propyl)-1-piperidyl]methanone] | very slight tingling/fizzing and mouth-watering, dry in the mouth | – | –
CCOc1ccc(C(=O)N2CCN(Cc3ccccc3)CC2)cc1OCC [Compound 8, (4-benzylpiperazin-1-yl)-(3,4-diethoxy-phenyl)methanone] | – | – | slightly tingling/ fizzing, slightly mouth-watering, slightly cooling
CCOc1ccc(C(=O)N2CCN(CCCCc3ccccc3)CC2)cc1OCC [Compound 11, (3,4-Diethoxy-phenyl)-[4-(4-phenyl-butyl)piperazin-1-yl]methanone] | – | – | tingling/ fizzing, like melon, astringent, mouth-watering
